The supplement of paper PMC11061612

Tests used:
Assay in all cases: combination Emax (second highest fraction inhibited in the dose matrix, 72 h); higher = more inhibition; extreme values may be limits of the assay
[1] = tested on: RERF-LC-Sq1 (Squamous Cell Lung Carcinoma)
Procedure, shortened: (§1)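 Cell lines in DMEM/F12 or RPMI with 10% FBS were plated in 1536-well plates, held 24 hours at 37°C, 5% CO2, then given two-drug dose matrices for 72 hours (DMSO typically 0.2%). Viability was read by CellTiter-Glo 2.0 luminescence and scaled as inhibition from 0 (vehicle wells) to 1 (blank wells). Combination Emax is the second-highest inhibition in the matrix; Bliss excess is observed combination effect minus expected EA + EB − EA·EB, EA and EB being single-agent effects.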

[2] = tested on: GP5d (Colorectal Carcinoma)
Procedure, shortened: as §1

[3] = tested on: HSC-39 (Gastric Carcinoma)
Procedure, shortened: as §1

[4] = tested on: REH (B-Lymphoblastic Leukemia)
Procedure, shortened: as §1

[5] = tested on: LB996-RCC (Kidney Carcinoma)
Procedure, shortened: as §1

[6] = tested on: PSN1 (Pancreatic Carcinoma)
Procedure, shortened: as §1

| SMILES | combination Emax [1] | combination Emax [2] | combination Emax [3] | combination Emax [4] | combination Emax [5] | combination Emax [6] |
| --- | --- | --- | --- | --- | --- | --- |
| Cc1c2c(nn1C)CSCc1cc(n(C)n1)CSc1cc(c3ccccc3c1)OCCCc1c(C(=O)O)n(C)c3c-2c(Cl)ccc13 [AZD5991] + CN(C)CCCOc1ccc(-c2ccc3ncc4c(c3c2)n(C2CCOCC2)c(=O)n4C)cn1 [AZD0156] (first compound max 1 µM, 7x7, partner max 1 µM) | 0.364 | 0.817 | 1 | 0.694 | 0.265 | 0.397 |
| COc1cccc(OCCCN)c1-c1cc(Nc2cnc(C#N)cn2)n[nH]1 [Prexasertib] + C[C@@H]1COCCN1C2=NC(=NC(=C2)C3(CC3)[S@](=N)(=O)C)C4=C5C=CNC5=NC=C4 [AZD6738] (first compound max 1 µM, 7x7, partner max 10 µM) | 0.899 | 0.967 | 1 | 1 | 0.786 | 0.536 |
| Cc1cc2ncnn2cc1Nc1ncc2c(n1)n(C1CCOCC1)c(=O)n2C [AZD7648] + C=CCn1c(=O)c2cnc(Nc3ccc(N4CCN(C)CC4)cc3)nc2n1-c1cccc(C(C)(C)O)n1 [AZD1775] (first compound max 10 µM, partner max 1 µM) | 0.672 | 0.704 | 0.936 | 0.848 | 0.762 | 0.557 |
| CN(CCO)CC[C@H](CSc1ccccc1)Nc1ccc(S(=O)(=O)NC(=O)c2ccc(N3CCC([C@@H](O)c4ccccc4-c4ccc(Cl)cc4)CC3)cc2)cc1S(=O)(=O)C(F)(F)F [AZD4320] + C1CN(CCC1(C(=O)N[C@@H](CCO)C2=CC=C(C=C2)Cl)N)C3=NC=NC4=C3C=CN4 [Capivasertib] (first compound max 1 µM, 7x7, partner max 3 µM) | 0.667 | 0.72 | 0.328 | 1 | 0.494 | 0.276 |
| CN(CCO)CC[C@H](CSc1ccccc1)Nc1ccc(S(=O)(=O)NC(=O)c2ccc(N3CCC([C@@H](O)c4ccccc4-c4ccc(Cl)cc4)CC3)cc2)cc1S(=O)(=O)C(F)(F)F [AZD4320] + Cn1cnc2c(F)c(Nc3ccc(Br)cc3Cl)c(C(=O)NOCCO)cc21 [Selumetinib] (first compound max 1 µM, 7x7, partner max 3 µM) | 0.49 | 0.9 | 0.57 | 0.992 | 0.513 | 0.664 |
| CN(CCO)CC[C@H](CSc1ccccc1)Nc1ccc(S(=O)(=O)NC(=O)c2ccc(N3CCC([C@@H](O)c4ccccc4-c4ccc(Cl)cc4)CC3)cc2)cc1S(=O)(=O)C(F)(F)F [AZD4320] + Cc1cc2ncnn2cc1Nc1ncc2c(n1)n(C1CCOCC1)c(=O)n2C [AZD7648] (first compound max 1 µM, 7x7, partner max 10 µM) | 0.18 | 0.295 | 0.367 | 1 | 0.321 | 0.315 |
| CCN(CCO)CCCOc1ccc2c(Nc3cc(CC(=O)Nc4cccc(F)c4)[nH]n3)ncnc2c1 [AZD2811] + C=CCn1c(=O)c2cnc(Nc3ccc(N4CCN(C)CC4)cc3)nc2n1-c1cccc(C(C)(C)O)n1 [AZD1775] (first compound max 1 µM, partner max 1 µM) | 0.68 | 0.735 | 0.985 | 0.741 | 0.842 | 0.401 |
| CCc1c2c(nc3ccc(O)cc13)-c1cc3c(c(=O)n1C2)COC(=O)[C@]3(O)CC [SN-38] + CN(C)CCCOc1ccc(-c2ccc3ncc4c(c3c2)n(C2CCOCC2)c(=O)n4C)cn1 [AZD0156] (first compound max 0.3 µM, 7x7, partner max 1 µM) | 0.743 | 0.655 | 0.964 | 1 | 0.898 | 0.705 |
| COc1cccc(OCCCN)c1-c1cc(Nc2cnc(C#N)cn2)n[nH]1 [Prexasertib] + CCc1c2c(nc3ccc(O)cc13)-c1cc3c(c(=O)n1C2)COC(=O)[C@]3(O)CC [SN-38] (first compound max 1 µM, 7x7, partner max 0.3 µM) | 0.824 | 0.949 | 1 | 1 | 0.947 | 0.931 |
| CCc1c2c(nc3ccc(O)cc13)-c1cc3c(c(=O)n1C2)COC(=O)[C@]3(O)CC [SN-38] + O=C(c1cc(Cc2n[nH]c(=O)c3ccccc23)ccc1F)N1CCN(C(=O)C2CC2)CC1 [Olaparib] (first compound max 0.3 µM, 7x7, partner max 10 µM) | 0.672 | 0.704 | 0.887 | 1 | 0.854 | 0.753 |
